Here are results for 16 compounds from patent US10059688B2, “Protein tyrosine kinase modulators and methods of use” (BETTA PHARMACEUTICALS CO., LTD., priority 2013, dated 2018).

Holding throughout (test): Kinase assay, single dose inhibition (Millipore, 33P-ATP filter binding)
Holding throughout (format): biochemical
What all share (settings): 0.1 μM test compound, 10 μM ATP; remaining activity relative to DMSO control = 100%

Experiment [1] deals with ALK (h) (Homo sapiens (Human), UniProt Q9UM73).
Sequence of ALK (h) (Q9UM73 19-1620): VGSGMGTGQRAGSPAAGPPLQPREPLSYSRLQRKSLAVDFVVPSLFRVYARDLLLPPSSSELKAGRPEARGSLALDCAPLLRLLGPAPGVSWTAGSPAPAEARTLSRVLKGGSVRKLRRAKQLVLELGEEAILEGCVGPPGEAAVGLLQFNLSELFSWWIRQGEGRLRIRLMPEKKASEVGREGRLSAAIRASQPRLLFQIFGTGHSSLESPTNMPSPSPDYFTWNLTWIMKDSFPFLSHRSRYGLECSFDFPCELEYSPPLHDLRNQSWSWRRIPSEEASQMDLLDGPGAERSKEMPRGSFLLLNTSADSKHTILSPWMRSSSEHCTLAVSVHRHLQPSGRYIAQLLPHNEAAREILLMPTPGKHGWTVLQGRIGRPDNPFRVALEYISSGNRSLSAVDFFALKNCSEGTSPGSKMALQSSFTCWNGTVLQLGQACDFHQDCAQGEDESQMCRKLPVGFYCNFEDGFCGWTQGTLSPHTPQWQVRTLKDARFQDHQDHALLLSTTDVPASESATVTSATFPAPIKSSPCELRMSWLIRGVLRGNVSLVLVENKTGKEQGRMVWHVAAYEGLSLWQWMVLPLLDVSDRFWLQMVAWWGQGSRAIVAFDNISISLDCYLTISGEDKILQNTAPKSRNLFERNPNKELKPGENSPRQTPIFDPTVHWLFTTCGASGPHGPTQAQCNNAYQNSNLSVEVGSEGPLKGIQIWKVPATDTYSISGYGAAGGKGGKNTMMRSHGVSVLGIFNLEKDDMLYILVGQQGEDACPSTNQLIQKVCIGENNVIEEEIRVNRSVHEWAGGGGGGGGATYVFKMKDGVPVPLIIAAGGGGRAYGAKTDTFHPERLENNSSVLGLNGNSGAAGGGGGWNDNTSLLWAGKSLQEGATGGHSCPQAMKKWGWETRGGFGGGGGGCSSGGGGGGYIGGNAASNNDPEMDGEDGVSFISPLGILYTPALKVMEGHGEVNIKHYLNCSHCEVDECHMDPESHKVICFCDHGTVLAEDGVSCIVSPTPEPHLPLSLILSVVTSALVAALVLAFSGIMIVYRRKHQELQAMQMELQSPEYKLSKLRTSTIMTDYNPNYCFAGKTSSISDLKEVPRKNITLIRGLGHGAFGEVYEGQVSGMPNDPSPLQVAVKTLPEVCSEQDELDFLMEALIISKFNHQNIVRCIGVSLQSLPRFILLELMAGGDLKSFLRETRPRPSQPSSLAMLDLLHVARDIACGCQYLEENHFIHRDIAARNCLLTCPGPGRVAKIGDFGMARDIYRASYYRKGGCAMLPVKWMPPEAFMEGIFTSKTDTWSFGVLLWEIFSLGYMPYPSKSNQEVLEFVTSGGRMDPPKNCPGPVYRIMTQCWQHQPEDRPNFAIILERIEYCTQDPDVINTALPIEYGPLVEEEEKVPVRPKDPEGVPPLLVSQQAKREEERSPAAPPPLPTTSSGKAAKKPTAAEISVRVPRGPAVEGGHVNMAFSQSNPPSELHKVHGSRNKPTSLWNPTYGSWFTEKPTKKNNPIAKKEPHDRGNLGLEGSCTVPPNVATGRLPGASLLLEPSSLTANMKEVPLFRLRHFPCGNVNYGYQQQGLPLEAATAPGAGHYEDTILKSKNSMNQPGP
Experiment [2] deals with EGFR (h) (Homo sapiens (Human), UniProt P00533).
Experiment [3] addresses EGFR (L858R) (h) (Homo sapiens (Human), UniProt P00533, L858R).
The target in experiment [4] is EGFR (T790M) (h) (Homo sapiens (Human), UniProt P00533, T790M).
For experiment [5], the target named is EGFR (T790M, L858R) (h) (Homo sapiens (Human), UniProt P00533, L858R/T790M).

Consider `COc1cc(Nc2ncc(Cl)c(Nc3ccccc3C(=O)C(=O)N(C)C)n2)ccc1N1CCOCC1` [Example 117, 2-(2-(5-chloro-2-(3-methoxy-4-morpholinophenylamino)pyrimidin-4-ylamino)phenyl)-N,N-dimethyl-2-oxoacetamide], for which the “Activity (control) % ALK (h)” value in experiment [1] turned out to be 8%. The “Activity (control) % EGFR (h)” value in experiment [2] is on record as 113%. Also, in experiment [3], the “Activity (control) % EGFR (L858R) (h)” value was found to be 88%. The “Activity (control) % EGFR (T790M) (h)” value in experiment [4] amounted to 65%. The “Activity (control) % EGFR (T790M, L858R) (h)” value in experiment [5] is listed as 14%.
With `C=C(CN(C)C)C(=O)Nc1ccc(OC)c(Nc2ncc(Cl)c(Nc3ccccc3C(=O)C(=O)N(C)C)n2)c1` [Example 78, N-(3-(5-chloro-4-(2-(2-(dimethylamino)-2-oxoactyl)phenylamino)pyrimidin-2-ylamino)-4-methoxyphenyl)-2-((dimethylamino)methyl)acrylamide], the “Activity (control) % ALK (h)” value in experiment [1] stood at 36%. In addition, the “Activity (control) % EGFR (h)” value in experiment [2] is on record as 68%. The “Activity (control) % EGFR (L858R) (h)” value in experiment [3] is on record as 37%. Also, the “Activity (control) % EGFR (T790M) (h)” value in experiment [4] came to 2%. For the same compound, the “Activity (control) % EGFR (T790M, L858R) (h)” value in experiment [5] was found to be 3%.
Take `C=C(CN(C)CCN(C)C)C(=O)Nc1cccc(Nc2ncc(Cl)c(Nc3ccccc3C(=O)C(=O)N(C)C)n2)c1` [Example 125, N-(3-(5-chloro-4-(2-(2-(dimethylamino)-2-oxoacetyl)phenylamino)pyrimidin-2-ylamino)phenyl)-2-(((2-(dimethylamino)ethyl)(methyl)amino)methyl)acrylamide]: the “Activity (control) % ALK (h)” value in experiment [1] amounted to 20%. Further, the “Activity (control) % EGFR (h)” value in experiment [2] worked out at 106%. Besides, the “Activity (control) % EGFR (L858R) (h)” value in experiment [3] was found to be 54%. Moreover, in experiment [4], the “Activity (control) % EGFR (T790M) (h)” value is recorded as 18%. For the same compound, the “Activity (control) % EGFR (T790M, L858R) (h)” value in experiment [5] is given as 2%.
With “N-(5-(5-chloro-4-(2-(2-(dimethylamino)-2-oxoactyl)phenylamino)pyrimidin-2-ylamino)-2-(tetrahydrofuran-3-yloxy)phenyl)acrylamide [Example 124]”, the “Activity (control) % ALK (h)” value in experiment [1] came to 16%. The “Activity (control) % EGFR (h)” value in experiment [2] amounted to 109%. Besides, the “Activity (control) % EGFR (L858R) (h)” value in experiment [3] was determined as 100%. The “Activity (control) % EGFR (T790M) (h)” value in experiment [4] came to 78%. In addition, the “Activity (control) % EGFR (T790M, L858R) (h)” value in experiment [5] amounted to 20%.
For `C=CC(=O)Nc1ccc(N2CCN(C)CC2)c(Nc2ncc(Cl)c(Nc3ccccc3C(=O)C(=O)N(C)C)n2)c1` [Example 135, N-(3-(5-chloro-4-(2-(2-(dimethylamino)-2-oxoacetyl)phenylamino)pyrimidin-2-ylamino)-4-(4-methylpiperazin-1-yl)phenyl)acrylamide], in that order: 80%, 106%, 103%, 96% and 95%.
For `C=CC(=O)Nc1ccc(OC)c(Nc2ncc(Cl)c(Nc3ccccc3C(=O)C(=O)N3CCN(C)CC3)n2)c1` [Example 89, N-(3-(5-chloro-4-(2-(2-(4-methylpiperazin-1-yl)-2-oxoacetyl)phenylamino)pyrimidin-2-ylamino)-4-methoxyphenyl)acrylamide], in that order: 8%, 67%, 10%, 5% and 1%.
With `C=C(CN1CCCCC1)C(=O)Nc1cccc(Nc2ncc(Cl)c(Nc3ccccc3C(=O)C(=O)N(C)C)n2)c1` [Example 113, N-(3-(5-chloro-4-(2-(2-(dimethylamino)-2-oxoacetyl)phenylamino)pyrimidin-2-ylamino)phenyl)-2-(piperidin-1-ylmethyl)acrylamide], the “Activity (control) % ALK (h)” value in experiment [1] came out at 19%. In addition, the “Activity (control) % EGFR (h)” value in experiment [2] came out at 88%. Also, in experiment [3], the “Activity (control) % EGFR (L858R) (h)” value amounted to 78%. The “Activity (control) % EGFR (T790M) (h)” value in experiment [4] is recorded as 16%. The “Activity (control) % EGFR (T790M, L858R) (h)” value in experiment [5] is listed as 3%.
On to `C=C(CN1CCCCC1)C(=O)Nc1cc(Nc2ncc(Cl)c(Nc3ccccc3C(=O)C(=O)N(C)C)n2)ccc1N1CCOCC1` [Example 129, N-(5-(5-chloro-4-(2-(2-(dimethylamino)-2-oxoactyl)phenylamino)pyrimidin-2-ylamino)-2-morpholinophenyl)-2-(piperidin-1-ylmethyl)acrylamide], for which the “Activity (control) % ALK (h)” value in experiment [1] is 8%. Further, the “Activity (control) % EGFR (h)” value in experiment [2] was 104%. Further, in experiment [3], the “Activity (control) % EGFR (L858R) (h)” value is 75%. For the same compound, the “Activity (control) % EGFR (T790M) (h)” value in experiment [4] came to 24%. The “Activity (control) % EGFR (T790M, L858R) (h)” value in experiment [5] amounted to 3%.
The like results for `C=C(CN1CCCC1)C(=O)Nc1ccc(OC)c(Nc2ncc(Cl)c(Nc3ccccc3C(=O)C(=O)N(C)C)n2)c1` [Example 97, N-(3-(5-chloro-4-(2-(2-(dimethylamino)-2-oxoactyl)phenylamino)pyrimidin-2-ylamino)-4-methoxyphenyl)-2-(pyrrolidin-1-ylmethyl)acrylamide] were, in that order, 23%, 74%, 46%, 2% and 6%.
Take `C=C(CN1CCCCC1)C(=O)Nc1ccc(OC)c(Nc2ncc(Cl)c(Nc3ccccc3C(=O)C(=O)N(C)C)n2)c1` [Example 73, N-(3-(5-chloro-4-(2-(2-(dimethylamino)-2-oxoactyl)phenylamino)pyrimidin-2-ylamino)-4-methoxyphenyl)-2-(piperidin-1-ylmethyl)acrylamide]: the “Activity (control) % ALK (h)” value in experiment [1] was 17%. Further, the “Activity (control) % EGFR (h)” value in experiment [2] turned out to be 67%. Besides, in experiment [3], the “Activity (control) % EGFR (L858R) (h)” value stood at 37%. Besides, the “Activity (control) % EGFR (T790M) (h)” value in experiment [4] stood at 3%. Further, the “Activity (control) % EGFR (T790M, L858R) (h)” value in experiment [5] was 3%.
Take `COc1ccc(NC(=O)/C=C/CN2CCOCC2)cc1Nc1ncc(Cl)c(Nc2ccccc2C(=O)C(=O)N(C)C)n1` [Example 79, (E)-N-(3-(5-chloro-4-(2-(2-(dimethylamino)-2-oxoacetyl)phenylamino)pyrimidin-2-ylamino)-4-methoxyphenyl)-4-morpholinobut-2-enamide]: the “Activity (control) % ALK (h)” value in experiment [1] is given as 7%. Moreover, the “Activity (control) % EGFR (h)” value in experiment [2] turned out to be 92%. Further, the “Activity (control) % EGFR (L858R) (h)” value in experiment [3] was found to be 25%. In addition, the “Activity (control) % EGFR (T790M) (h)” value in experiment [4] was determined as 16%. For the same compound, the “Activity (control) % EGFR (T790M, L858R) (h)” value in experiment [5] stood at 2%.
On to `C=CC(=O)Nc1cc(Nc2ncc(Cl)c(Nc3ccccc3C(=O)C(=O)N(C)C)n2)ccc1N1CCN(C)CC1` [Example 111, N-(5-(5-chloro-4-(2-(2-(dimethylamino)-2-oxoactyl)phenylamino)pyrimidin-2-ylamino)-2-(4-methylpiperazin-1-yl)phenyl)acrylamide], for which the “Activity (control) % ALK (h)” value in experiment [1] is 8%. For the same compound, in experiment [2], the “Activity (control) % EGFR (h)” value was 109%. The “Activity (control) % EGFR (L858R) (h)” value in experiment [3] is recorded as 76%. The “Activity (control) % EGFR (T790M) (h)” value in experiment [4] was 59%. Moreover, in experiment [5], the “Activity (control) % EGFR (T790M, L858R) (h)” value came to 11%.
In the case of `C=CC(=O)Nc1cc(Nc2ncc(C)c(Nc3ccccc3C(=O)C(=O)N(C)C)n2)ccc1OC` [Example 101, N-(5-(4-(2-(2-(dimethylamino)-2-oxoacetyl)phenylamino)-5-methylpyrimidin-2-ylamino)-2-methoxyphenyl)acrylamide], the “Activity (control) % ALK (h)” value in experiment [1] is recorded as 35%. For the same compound, the “Activity (control) % EGFR (h)” value in experiment [2] stood at 110%. Moreover, the “Activity (control) % EGFR (L858R) (h)” value in experiment [3] is listed as 94%. Besides, the “Activity (control) % EGFR (T790M) (h)” value in experiment [4] was 83%. Besides, in experiment [5], the “Activity (control) % EGFR (T790M, L858R) (h)” value is given as 41%.
As to `CN(C)C/C=C/C(=O)Nc1cccc(Nc2ncc(Cl)c(Nc3ccccc3C(=O)C(=O)N(C)C)n2)c1` [Example 114, (E)-N-(3-(5-chloro-4-(2-(2-(dimethylamino)-2-oxoacetyl)phenylamino)pyrimidin-2-ylamino)phenyl)-4-(dimethylamino)but-2-enamide], the “Activity (control) % ALK (h)” value in experiment [1] is 10%. In experiment [2], the “Activity (control) % EGFR (h)” value was found to be 91%. Besides, in experiment [3], the “Activity (control) % EGFR (L858R) (h)” value amounted to 52%. Also, the “Activity (control) % EGFR (T790M) (h)” value in experiment [4] was 47%. The “Activity (control) % EGFR (T790M, L858R) (h)” value in experiment [5] is 8%.
`COc1cc(Nc2ncc(Cl)c(Nc3ccccc3C(=O)C(=O)N(C)C)n2)ccc1N1CCN(C(C)=O)CC1` [Example 94, 2-(2-(2-(4-(4-acetylpiperazin-1-yl)-3-methoxyphenylamino)-5-chloropyrimidin-4-ylamino)phenyl)-N,N-dimethyl-2-oxoacetamide]: in experiment [1], the “Activity (control) % ALK (h)” value was 6%. Moreover, the “Activity (control) % EGFR (h)” value in experiment [2] is reported as 100%. In experiment [3], the “Activity (control) % EGFR (L858R) (h)” value was 84%. For the same compound, the “Activity (control) % EGFR (T790M) (h)” value in experiment [4] is given as 45%. In experiment [5], the “Activity (control) % EGFR (T790M, L858R) (h)” value was determined as 9%.
Regarding `C=CC(=O)Nc1cc(Nc2ncc(Cl)c(Nc3ccccc3C(=O)C(=O)N(CC)CC)n2)ccc1OC` [Example 132, N-(5-(5-chloro-4-(2-(2-(diethylamino)-2-oxoactyl)phenylamino)pyrimidin-2-ylamino)-2-methoxyphenyl)acrylamide], the “Activity (control) % ALK (h)” value in experiment [1] is listed as 16%. Further, the “Activity (control) % EGFR (h)” value in experiment [2] was 103%. Moreover, in experiment [3], the “Activity (control) % EGFR (L858R) (h)” value is listed as 114%. For the same compound, the “Activity (control) % EGFR (T790M) (h)” value in experiment [4] came out at 77%. Also, the “Activity (control) % EGFR (T790M, L858R) (h)” value in experiment [5] amounted to 30%.
